# Results: ChEMBL document CHEMBL6134930, “Discovery of AB801, a Potent and Selective Inhibitor of AXL Receptor Tyrosine Kinase for Use in Cancer Therapy” (J Med Chem, 2025)
# Columns and labels:
# [1] = Volume of distribution at steady state in CD-1 mouse at 1 mg/kg, iv measured up to 24 hrs by LC-MS/MS analysis; assay type: ADME, organism-based; conditions: in vivo, read-out: Vdss
# [2] = Efflux ratio in human Caco-2 cells; assay type: ADME, cell-based
# [3] = Metabolic stability in human hepatocytes assessed as intrinsic clearance measured per 10^6 cells; assay type: ADME, cell-based, Hepatocyte; conditions: read-out: CLH
# [4] = Clearance in CD-1 mouse at 1 mg/kg, iv measured up to 24 hrs by LC-MS/MS analysis; assay type: ADME, organism-based; conditions: in vivo
# [5] = AUCinfinity in cynomolgus monkey at 1 mg/kg, iv measured up to 8 hrs by LC-MS/MS analysis; assay type: ADME, organism-based, Macaca fascicularis; conditions: in vivo
# [6] = Terminal half life in cynomolgus monkey at 1 mg/kg, iv measured up to 8 hrs by LC-MS/MS analysis; assay type: ADME, organism-based, Macaca fascicularis; conditions: in vivo, read-out: beta t1/2 (converted)
# [7] = Clearance in cynomolgus monkey at 1 mg/kg, iv measured up to 8 hrs by LC-MS/MS analysis; assay type: ADME, organism-based, Macaca fascicularis; conditions: in vivo
# [8] = Clearance in Sprague-Dawley rat at 1 mg/kg, iv measured up to 8 hrs by LC-MS/MS analysis; assay type: ADME, organism-based; conditions: in vivo
# [9] = AUCinfinity in Sprague-Dawley rat at 1 mg/kg, iv measured up to 8 hrs by LC-MS/MS analysis; assay type: ADME, organism-based; conditions: in vivo
# [10] = Terminal half life in Beagle dog at 1 mg/kg, iv measured up to 8 hrs by LC-MS/MS analysis; assay type: ADME, organism-based, Canis lupus familiaris; conditions: in vivo, read-out: beta t1/2 (converted)
# [11] = AUC (0 to last) in Beagle dog at 1 mg/kg, iv measured up to 8 hrs by LC-MS/MS analysis; assay type: ADME, organism-based, Canis lupus familiaris; conditions: in vivo
# [12] = AUC (0 to last) in cynomolgus monkey at 1 mg/kg, iv measured up to 8 hrs by LC-MS/MS analysis; assay type: ADME, organism-based, Macaca fascicularis; conditions: in vivo
# [13] = biological target: T1, Tyrosine-protein kinase receptor UFO (Homo sapiens, UniProt P30530); test: Binding affinity to AXL (unknown origin) expressed in HEK293 cells transfected with Nano-Luc fusion vector assessed as dissociation constant by measuring decrease in BRET signal preincubated for 1 hr followed by K-5 NanoBRET tracer addition incubated for 2 hrs; assay type: cell-based
# T1 sequence (P30530 whole entry): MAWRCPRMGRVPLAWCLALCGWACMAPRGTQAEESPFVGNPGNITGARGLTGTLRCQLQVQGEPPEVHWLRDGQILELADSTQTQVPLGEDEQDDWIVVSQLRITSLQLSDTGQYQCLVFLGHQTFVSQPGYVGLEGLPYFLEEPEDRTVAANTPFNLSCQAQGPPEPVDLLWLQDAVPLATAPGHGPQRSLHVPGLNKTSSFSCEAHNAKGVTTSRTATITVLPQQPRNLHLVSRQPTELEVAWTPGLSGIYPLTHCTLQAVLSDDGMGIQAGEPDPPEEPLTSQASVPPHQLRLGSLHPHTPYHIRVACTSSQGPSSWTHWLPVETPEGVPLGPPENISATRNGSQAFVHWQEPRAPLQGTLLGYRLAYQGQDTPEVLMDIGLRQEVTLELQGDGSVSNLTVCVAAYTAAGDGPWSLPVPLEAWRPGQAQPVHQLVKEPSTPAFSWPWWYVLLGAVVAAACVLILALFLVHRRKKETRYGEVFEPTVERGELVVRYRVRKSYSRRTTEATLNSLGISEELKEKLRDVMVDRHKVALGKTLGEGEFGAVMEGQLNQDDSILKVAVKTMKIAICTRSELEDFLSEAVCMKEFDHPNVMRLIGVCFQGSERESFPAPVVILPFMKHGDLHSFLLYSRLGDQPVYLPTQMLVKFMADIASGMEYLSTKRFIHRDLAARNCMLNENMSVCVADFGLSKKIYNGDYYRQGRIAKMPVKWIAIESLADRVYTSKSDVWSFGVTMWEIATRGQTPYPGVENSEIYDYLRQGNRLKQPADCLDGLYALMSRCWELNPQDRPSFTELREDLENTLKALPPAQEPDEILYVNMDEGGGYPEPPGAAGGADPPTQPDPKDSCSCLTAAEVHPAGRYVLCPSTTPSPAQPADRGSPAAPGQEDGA
# [14] = Clearance in Beagle dog at 1 mg/kg, iv measured up to 8 hrs by LC-MS/MS analysis; assay type: ADME, organism-based, Canis lupus familiaris; conditions: in vivo
# [15] = AUC (0 to last) in CD-1 mouse at 1 mg/kg, iv measured up to 24 hrs by LC-MS/MS analysis; assay type: ADME, organism-based; conditions: in vivo
# [16] = AUCinf in Sprague-Dawley rat at 2 mg/kg, po measured up to 8 hrs by LC-MS/MS analysis; assay type: ADME, organism-based; conditions: in vivo
# [17] = AUC (0 to last) in Sprague-Dawley rat at 1 mg/kg, iv measured up to 8 hrs by LC-MS/MS analysis; assay type: ADME, organism-based; conditions: in vivo
# [18] = Volume of distribution at steady state in Sprague-Dawley rat at 1 mg/kg, iv measured up to 8 hrs by LC-MS/MS analysis; assay type: ADME, organism-based; conditions: in vivo, read-out: Vdss
# [19] = Volume of distribution at steady state in cynomolgus monkey at 1 mg/kg, iv measured up to 8 hrs by LC-MS/MS analysis; assay type: ADME, organism-based, Macaca fascicularis; conditions: in vivo, read-out: Vdss
# [20] = Terminal half life in Sprague-Dawley rat at 1 mg/kg, iv measured up to 8 hrs by LC-MS/MS analysis; assay type: ADME, organism-based; conditions: in vivo, read-out: beta t1/2 (converted)
# [21] = biological target: T1, Tyrosine-protein kinase receptor UFO; test: Inhibition of human AXL measured after 150 mins by ATP-competitive HTRF based biochemical assay
# [22] = Volume of distribution at steady state in Beagle dog at 1 mg/kg, iv measured up to 8 hrs by LC-MS/MS analysis; assay type: ADME, organism-based, Canis lupus familiaris; conditions: in vivo, read-out: Vdss
# [23] = AUCinfinity in CD-1 mouse at 1 mg/kg, iv measured up to 24 hrs by LC-MS/MS analysis; assay type: ADME, organism-based; conditions: in vivo
# [24] = Terminal half life in CD-1 mouse at 1 mg/kg, iv measured up to 24 hrs by LC-MS/MS analysis; assay type: ADME, organism-based; conditions: in vivo, read-out: beta t1/2 (converted)
# [25] = Metabolic stability in rat hepatocytes assessed as intrinsic clearance measured per 10^6 cells; assay type: ADME, cell-based, Hepatocyte; conditions: read-out: CLH
# [26] = AUCinfinity in Beagle dog at 1 mg/kg, iv measured up to 8 hrs by LC-MS/MS analysis; assay type: ADME, organism-based, Canis lupus familiaris; conditions: in vivo
compound,measurement,setting,value
CN(C)C(=O)c1ccc(-c2n[nH]c3ncc(-c4ccc5c(c4)CC[C@@H](N4C6COCC4C6)CC5)cc23)cc1,Vd,[1],3.2 L/kg
same,efflux ratio,[2],11
same,hepatocyte CLint,[3],4.6 µL/min/1e6 cells
same,clearance,[4],38.3 mL/min/kg
same,AUC(0-inf),[5],230 ng·h/mL
same,half-life,[6],2.3 h
same,clearance,[7],76.7 mL/min/kg
same,clearance,[8],2.67 mL/min/kg
same,AUC(0-inf),[9],6400 ng·h/mL
same,half-life,[10],3.8 h
same,AUC(0-t) at 8 h,[11],540 ng·h/mL
same,AUC(0-t) at 8 h,[12],210 ng·h/mL
same,Kd,[13],6.8 nM
same,clearance,[14],33.3 mL/min/kg
same,AUC(0-t) at 24 h,[15],13 ng·h/mL
same,AUC(0-inf),[16],4300 ng·h/mL
same,AUC(0-t) at 8 h,[17],6100 ng·h/mL
same,Vd,[18],0.34 L/kg
same,Vd,[19],13 L/kg
same,half-life,[20],2.2 h
same,IC50,[21],5.3 nM
same,Vd,[22],8.1 L/kg
same,AUC(0-inf),[23],430 ng·h/mL
same,half-life,[24],8.1 h
same,hepatocyte CLint,[25],20 µL/min/1e6 cells
same,AUC(0-inf),[26],560 ng·h/mL
